According to patent US12134611B2, “Compounds and compositions for treating conditions associated with NLRP activity” (Novartis AG, priority 2018, dated 2024):

Target: T1, hNLRP3 (Homo sapiens, UniProt Q96P20)
T1 construct: THP-1 cells were purchased from the American Type Culture Collection; host or cells: THP-1 cells, PMA-differentiated, stimulated with gramicidin
Assay: IL-1β production in PMA-differentiated THP-1 cells stimulated with gramicidin (hTHP-1 assay)
Assay type: cell-based
Settings: read-out: NLRP3 Antagonist, hNLRP3 (THP-1, IL-1b) Normalized: GeoMean IC50
Method: Procedure 1: IL-1β Production in PMA-Differentiated THP-1 Cells Stimulated with Gramicidin.
THP-1 cells were purchased from the American Type Culture Collection and sub-cultured according to instructions from the supplier. […] Prior to the experiment, compounds were dissolved in dimethyl sulfoxide (DMSO) to generate a 30 mM stock. […] DMSO was backfilled in the plate to achieve a final DMSO assay concentration of 0.37%. The plate was then sealed and stored at room temperature until required.
THP-1 cells were treated with PMA (Phorbol 12-myristate 13-acetate) (20 ng/ml) for 16-18 hours. On the day of the experiment the media was removed and adherent cells were detached with trypsin for 5 minutes.
Procedure 2: IL-1β Production in PMA-Differentiated THP-1 Cells Stimulated with Gramicidin.
THP-1 cells were purchased from the American Type Culture Collection and sub-cultured according to instructions from the supplier. […] Prior to the experiment THP-1 were treated with PMA (Phorbol 12-myristate 13-acetate) (20 ng/ml) for 16-18 hours. Compounds were dissolved in dimethyl sulfoxide (DMSO) to generate a 30 mM stock. On the day of the experiment the media was removed and adherent cells were detached with trypsin for 5 minutes. […] Final DMSO concentration was at 0.37%. Cells were incubated with compounds for 1 hour and then stimulated with gramicidin (5 μM) (Enzo) for 2 hours. Plates were then centrifuged at 340 g for 5 min. Cell free supernatant (40 μL) was collected using a 96-channel PlateMaster (Gilson) and the production of IL-1β was evaluated by HTRF (cisbio).
1. Experimental procedure
1.2 Compound Preparation • Prepare the 3-fold serial dilution of the compounds with DMSO in a 384-well LDV Microplate using TECAN EVO system to generate the compound source plate with 10 concentrations. Top concentration is 30 mM. FIG. 5 depicts the layout of the microplate.
FIG. 5 depicts the layout of the plates: HC: 100 μM CRID3 (MCC950)+5 μM gramicidin LC: 5 μM Gramicidin.
1.5 IL-1β Detection • 1) Homogenize the 5× diluent #5 with a vortex and add 1 volume of stock solution in 4 volumes of distilled water. • 2) Thaw 20× stock solution of anti-IL1β-Cryptate-antibody and anti-IL1β XL-antibody. […] 2. Data Analysis: • 1.

T1 sequence (Q96P20 whole entry): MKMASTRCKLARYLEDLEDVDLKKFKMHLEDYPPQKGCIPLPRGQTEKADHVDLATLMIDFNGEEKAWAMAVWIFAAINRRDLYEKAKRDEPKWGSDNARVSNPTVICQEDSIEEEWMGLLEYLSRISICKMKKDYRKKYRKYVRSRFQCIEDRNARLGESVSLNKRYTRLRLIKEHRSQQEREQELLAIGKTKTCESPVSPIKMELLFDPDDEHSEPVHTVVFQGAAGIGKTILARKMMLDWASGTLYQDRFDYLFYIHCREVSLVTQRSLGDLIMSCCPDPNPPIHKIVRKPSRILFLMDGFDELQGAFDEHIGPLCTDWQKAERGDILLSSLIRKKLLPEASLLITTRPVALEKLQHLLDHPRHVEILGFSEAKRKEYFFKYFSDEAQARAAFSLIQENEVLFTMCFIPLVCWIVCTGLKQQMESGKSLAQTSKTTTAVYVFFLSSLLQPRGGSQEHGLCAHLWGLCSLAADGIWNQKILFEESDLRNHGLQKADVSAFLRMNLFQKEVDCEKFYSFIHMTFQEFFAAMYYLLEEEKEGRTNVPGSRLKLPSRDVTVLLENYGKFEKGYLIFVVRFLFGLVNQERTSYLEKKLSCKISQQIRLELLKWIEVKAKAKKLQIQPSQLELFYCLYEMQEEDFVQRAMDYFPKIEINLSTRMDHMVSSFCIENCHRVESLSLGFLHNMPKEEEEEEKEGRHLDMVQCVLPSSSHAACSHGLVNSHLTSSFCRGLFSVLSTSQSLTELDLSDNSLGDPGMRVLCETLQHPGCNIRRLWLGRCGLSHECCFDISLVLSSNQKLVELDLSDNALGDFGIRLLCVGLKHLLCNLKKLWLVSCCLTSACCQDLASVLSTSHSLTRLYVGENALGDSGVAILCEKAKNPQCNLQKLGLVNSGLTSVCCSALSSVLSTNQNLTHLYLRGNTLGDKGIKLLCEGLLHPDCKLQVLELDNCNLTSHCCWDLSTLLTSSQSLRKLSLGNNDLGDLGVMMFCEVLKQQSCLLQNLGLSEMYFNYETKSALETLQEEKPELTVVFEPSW

Row | SMILES | IC50 [µM]
1 | Cc1c(C2CC2)nc2c(c1NC(=O)N=S1(=O)NC(=O)c3ccc(C(C)(C)O)cc31)CCC2 (single isomer, unassigned) [Compound 138, (S or R)-1-(2-cyclopropyl-3-methyl-6,7-dihydro-5H-cyclopenta[b]pyridin-4-yl)-3-(6-(2-hydroxypropan-2-yl)-1-oxido-3-oxo-2,3-dihydro-1l4-benzo[d]isothiazol-1-ylidene)urea] | 0.2 to 1
2 | O=C(N=S1(=O)CC2(CN1)COC2)Nc1c2c(cc3c1CCC3)CCC2 (single isomer, unassigned) [Compound 139a, (S or R)-1-(1,2,3,5,6,7-hexahydro-s-indacen-4-yl)-3-(6-oxido-2-oxa-6l6-thia-7-azaspiro[3.4]octan-6-ylidene)urea] | > 30
3 | CC(O)(CO)c1ccc2c(c1)S(=O)(=NC(=O)Nc1c3c(cc4c1CCC4)CCC3)NC2=O (single isomer, unassigned) [Compound 208a, 1-((1R or S)-6-(1,2-dihydroxypropan-2-yl)-1-oxido-3-oxo-2,3-dihydro-1l4-benzo[d]isothiazol-1-ylidene)-3-(1,2,3,5,6,7-hexahydro-s-indacen-4-yl)urea] | 1 to 5
4 | CC(O)(CO)c1ccc2c(c1)S(=O)(=NC(=O)Nc1c3c(cc4c1CCC4)CCC3)NC2=O (single isomer, unassigned) [Compound 208b, 1-((1S or R)-6-(1,2-dihydroxypropan-2-yl)-1-oxido-3-oxo-2,3-dihydro-1l4-benzo[d]isothiazol-1-ylidene)-3-(1,2,3,5,6,7-hexahydro-s-iadacen-4-yl)urea] | 0.04 to 0.2
5 | O=C(N=S1(=O)NC(=O)c2ccc(-n3cccn3)cc21)Nc1c2c(cc3c1CCC3)CCC2 (single isomer, unassigned) [Compound 211a, (S or R)-1-(1,2,3,5,6,7-hexahydro-s-indacen-4-yl)-3-(1-oxido-3-oxo-6-(1H-pyrazol-1-yl)-2,3-dihyclro-1l4-benzo[d]isothiazol-1-ylidene)urea] | 5 to 30
6 | O=C(N=S1(=O)NC(=O)c2ccc(-n3cccn3)cc21)Nc1c2c(cc3c1CCC3)CCC2 (single isomer, unassigned) [Compound 211b, (R or S)-1-(1,2,3,5,6,7-hexahydro-s-indacen-4-yl)-3-(1-oxido-3-oxo-6-(1H-pyrazol-1-yl)-2,3-dihydro-1l4-benzo[d]isothiazol-1-ylidene)urea] | > 30
7 | O=C(N=S1(=O)NC(=O)c2cccnc21)Nc1c2c(cc3c1CCC3)CCC2 (single isomer, unassigned) [Compound 223a, (S or S)-1-(1,2,3,5,6,7-hexahydro-s-indacen-4-yl)-3-(1-oxido-3-oxo-2,3-dihydro-1l4-isothiazolo[5,4-b]pyridin-1-ylidene)urea] | 1 to 5
8 | O=C(N=S1(=O)NC(=O)c2cccnc21)Nc1c2c(cc3c1CCC3)CCC2 (single isomer, unassigned) [Compound 223b, (R or S)-1-(1,2,3,5,6,7-hexahydro-s-indacen-4-yl)-3-(1-oxido-3-oxo-2,3-dihydro-1l4-isothiazolo[5,4-b]pyridin-1-ylidene)urea] | 5 to 30
9 | O=C(N=S1(=O)CC(Cc2ccccc2)C(=O)N1)Nc1c2c(cc3c1CCC3)CCC2 (single isomer, unassigned) [Compound 249a, 1-((1R,4S or 4R)-4-benzyl-1-oxido-3-oxo-1l6-isothiazolidin-1-ylidene)-3-(1,2,3,5,6,7-hexahydro-s-indacen-4-yl)urea] | 0.2 to 1
10 | O=C1CC(Cc2ccccc2)S(=O)(=NC(=O)Nc2c3c(cc4c2CCC4)CCC3)N1 (stereo not drawn) [Compound 101, 1-(5-benzyl-1-oxido-3-oxo-1l6-isothiazolidin-1-ylidene)-3-(1,2,3,5,6,7-hexahydro-s-indacen-4-yl)urea] | 1 to 5
11 | CC1(C)CS(=O)(=NC(=O)Nc2c3c(cc4c2CCC4)CCC3)NC1=O (stereo not drawn) [Compound 102, 1-(4,4-dimethyl-1-oxido-3-oxo-1l6-isothiazolidin-1-ylidene)-3-(1,2,3,5,6,7-hexahydro-s-indacen-4-yl)urea] | 0.2 to 1
12 | O=C(N=S1(=O)NC(=O)c2ccc(Br)cc21)Nc1c2c(cc3c1CCC3)CCC2 (stereo not drawn) [Compound 103, 1-(6-bromo-1-oxido-3-oxo-2,3-dihydro-1l4-benzo[d]isothiazol-1-ylidene)-3-(1,2,3,5,6,7-hexahydro-s-indacen-4-yl)urea] | 1 to 5
13 | CC(C)c1cc2c(c(C(C)C)c1CC(=O)N=S1(=O)NC(=O)c3ccc(C(C)(C)O)cc31)COC2 (stereo not drawn) [Compound 104, 2-(4,6-diisopropyl-1,3-dihydroisobenzofuran-5-yl)-N-(6-(2-hydroxypropan-2-yl)-1-oxido-3-oxo-2,3-dihydro-1l4-benzo[d]isothiazol-1-ylidene)acetamide] | > 30
14 | Cc1c(C2CC2)nc2c(c1NC(=O)N=S1(=O)NC(=O)c3ccc(C(C)(C)O)cc31)CCC2 (stereo not drawn) [Compound 105, 1-(2-cyclopropyl-3-methyl-6,7-dihydro-5H-cyclopenta[b]pyridin-4-yl)-3-(6-(2-hydroxypropan-2-yl)-1-oxido-3-oxo-2,3-dihydro-1l4-benzo[d]isothiazol-1-ylidene)urea] | 0.2 to 1
15 | CC(C)(O)c1ccc2c(c1)S(=O)(=NC(=O)Nc1c3c(nc(C4CC4)c1C1CC1)CCC3)NC2=O (stereo not drawn) [Compound 106, 1-(2,3-dicyclopropyl-6,7-dihydro-5H-cyclopenta[b]pyridin-4-yl)-3-(6-(2-hydroxypropan-2-yl)-1-oxido-3-oxo-2,3-dihydro-1l4-benzo[d]isothiazol-1-ylidene)urea] | 1 to 5
16 | CN1Cc2ccccc2S1(=O)=NC(=O)Nc1c2c(cc3c1CCC3)CCC2 (stereo not drawn) [Compound 107] | > 30
17 | Cc1c(C(F)(F)F)nc2c(c1NC(=O)N=S1(=O)NC(=O)c3ccc(C(C)(C)O)cc31)CCC2 (stereo not drawn) [Compound 108, 1-(6-(2-hydroxypropan-2-yl)-1-oxido-3-oxo-2,3-dihydro-1l4-benzo[d]isothiazol-1-ylidene)-3-(3-methyl-2-(trifluoromethyl)-6,7-dihydro-5H-cyclopenta[b]pyridin-4-yl)urea] | 1 to 5
18 | CC(C)c1cc(F)cc(C(C)C)c1CC(=O)N=S1(=O)NC(=O)c2ccc(C(C)(C)O)cc21 (stereo not drawn) [Compound 109] | > 30
19 | CN(C)Cc1ccc2c(c1)S(=O)(=NC(=O)Nc1c3c(cc4c1CCC4)CCC3)NC2=O (stereo not drawn) [Compound 110, 1-(6-((dimethylamino)methyl)-1-oxido-3-oxo-2,3-dihydro-1l4-benzo[d]isothiazol-1-ylidene)-3-(1,2,3,5,6,7-hexahydro-s-indacen-4-yl)urea] | 1 to 5
20 | CC(C)(O)c1ccc2c(c1)S(=O)(=NC(=O)Nc1c3c(cc4c1CC4)CCC3)NC2=O (stereo not drawn) [Compound 112, 1-(6-(2-hydroxypropan-2-yl)-1-oxido-3-oxo-2,3-dihydro-1l4-benzo[d]isothiazol-1-ylidene)-3-(2,4,5,6-tetrahydro-1H-cyclobuta[f]inden-3-yl)urea] | 0.2 to 1
21 | O=C1CCCS(=O)(=NC(=O)Nc2c3c(cc4c2CCC4)CCC3)N1 (stereo not drawn) [Compound 113, 1-(1,2,3,5,6,7-hexahydro-s-indacen-4-yl)-3-(1-oxido-3-oxo-1l6,2-thiazinan-1-ylidene)urea] | 1 to 5
22 | CC(C)(O)c1ccc2c(c1)S(=O)(=NC(=O)Cc1cc3c(c4c1CCC4)CCC3)NC2=O (stereo not drawn) [Compound 114, 2-(1,2,3,6,7,8-hexahydro-as-indacen-4-yl)-N-(6-(2-hydroxypropan-2-yl)-1-oxido-3-oxo-2,3-dihydro-1l4-benzo[d]isothiazol-1-ylidene)acetamide] | > 30
23 | CC(C)(O)c1ccc2c(c1)S(=O)(=NC(=O)Cc1c3c(cc4c1CCC4)CCC3)NC2=O (stereo not drawn) [Compound 115, 2-(1,2,3,5,6,7-hexahydro-s-indacen-4-yl)-N-(6-(2-hydroxypropan-2-yl)-1-oxido-3-oxo-2,3-dihydro-1l4-benzo[d]isothiazol-1-ylidene)acetamide] | > 30
24 | CN1C(=O)c2ccccc2S1(=O)=NC(=O)Nc1c2c(cc3c1CCC3)CCC2 (stereo not drawn) [Compound 116] | > 30
25 | CC(C)(O)c1ccc2c(c1)S(=O)(=NC(=O)Nc1c3c(nc4c1CCC4)CCC3)NC2=O (stereo not drawn) [Compound 117] | 1 to 5
26 | CC(C)(O)c1ccc2c(c1)S(=O)(=NC(=O)Nc1c3c(nc4c1CCC4(C)C)CCC3)NC2=O (stereo not drawn) [Compound 118, 1-(3,3-dimethyl-1,2,3,5,6,7-hexahydrodicyclopenta[b,e]pyridin-8-yl)-3-(6-(2-hydroxypropan-2-yl)-1-oxido-3-oxo-2,3-dihydro-1l4-benzo[d]isothiazol-1-ylidene)urea] | 1 to 5
27 | O=C(N=S1(=O)CCCN1)Nc1c2c(cc3c1CCC3)CCC2 (stereo not drawn) [Compound 119, 1-(1,2,3,5,6,7-hexahydro-s-indacen-4-yl)-3-(1-oxido-1l6-isothiazolidin-1-ylidene)urea] | 5 to 30
